Assay: mn = molality of the nth substance listed, in mol/kg
Conditions: 100 kPa, Liquid; for viscosity: Capillary tube (Ostwald / Ubbelohde) method; for speed of sound: Frequency=3 MHz, Sing-around technique in a fixed-path interferometer; for mass density: Vibrating tube method

N[C@@H](Cc1c[nH]cn1)C(=O)O [L-histidine] + O
Conditions	mass density [kg/m3]	speed of sound [m/s]	viscosity [mPa·s]
293.15 K, m1 = 0.02	999.369	1484.4	1.013
293.15 K, m1 = 0.04	1000.53	1486.2	1.019
293.15 K, m1 = 0.06	1001.7	1488	1.025
293.15 K, m1 = 0.08	1002.86	1489.7	1.03
293.15 K, m1 = 0.1	1004.03	1491.5	1.035
293.15 K, m1 = 0.12	1005.19	1493.2	1.04
293.15 K, m1 = 0.14	1006.36	1494.9	1.045
293.15 K, m1 = 0.16	1007.53	1496.6	1.049
293.15 K, m1 = 0.18	1008.71	1498.2	1.054
293.15 K, m1 = 0.2	1009.89	1499.9	1.058
298.15 K, m1 = 0.02	998.178	1498.5	0.8996
298.15 K, m1 = 0.04	999.317	1500.2	0.9048
298.15 K, m1 = 0.06	1000.46	1501.9	0.9091
298.15 K, m1 = 0.08	1001.59	1503.7	0.9138
298.15 K, m1 = 0.1	1002.73	1505.3	0.9175
298.15 K, m1 = 0.12	1003.87	1507	0.9222
298.15 K, m1 = 0.14	1005.02	1508.7	0.9259
298.15 K, m1 = 0.16	1006.16	1510.3	0.9293
298.15 K, m1 = 0.18	1007.32	1512	0.9336
298.15 K, m1 = 0.2	1008.47	1513.6	0.9374
303.15 K, m1 = 0.02	996.746	1510.7	0.8051
303.15 K, m1 = 0.04	997.854	1512.4	0.8093
303.15 K, m1 = 0.06	998.962	1514.1	0.813
303.15 K, m1 = 0.08	1000.07	1515.7	0.8165
303.15 K, m1 = 0.1	1001.18	1517.3	0.8198
303.15 K, m1 = 0.12	1002.29	1519	0.8233
303.15 K, m1 = 0.14	1003.39	1520.5	0.8265
303.15 K, m1 = 0.16	1004.5	1522.2	0.8301
303.15 K, m1 = 0.18	1005.61	1523.7	0.8339
303.15 K, m1 = 0.2	1006.72	1525.3	0.8372
308.15 K, m1 = 0.02	995.102	1521.3	0.7253
308.15 K, m1 = 0.04	996.183	1523	0.7289
308.15 K, m1 = 0.06	997.262	1524.6	0.732
308.15 K, m1 = 0.08	998.34	1526.2	0.7348
308.15 K, m1 = 0.1	999.416	1527.8	0.7378
308.15 K, m1 = 0.12	1000.49	1529.4	0.7407
308.15 K, m1 = 0.14	1001.57	1531	0.7435
308.15 K, m1 = 0.16	1002.64	1532.5	0.7466
308.15 K, m1 = 0.18	1003.72	1534.1	0.7492
308.15 K, m1 = 0.2	1004.78	1535.6	0.7524
313.15 K, m1 = 0.02	993.257	1530.4	0.6578
313.15 K, m1 = 0.04	994.314	1532	0.6608
313.15 K, m1 = 0.06	995.368	1533.5	0.6633
313.15 K, m1 = 0.08	996.42	1535.1	0.666
313.15 K, m1 = 0.1	997.47	1536.7	0.6682
313.15 K, m1 = 0.12	998.515	1538.2	0.6709
313.15 K, m1 = 0.14	999.558	1539.7	0.6734
313.15 K, m1 = 0.16	1000.6	1541.2	0.6756
313.15 K, m1 = 0.18	1001.63	1542.7	0.6783
313.15 K, m1 = 0.2	1002.67	1544.2	0.681

CN(C)C(=N)NC(=N)N.Cl [N,N-dimethylimidodicarbonimidic diamide hydrochloride] + O
Conditions	mass density, m1 = 0.01 [kg/m3]	mass density, m1 = 0.07 [kg/m3]	mass density, m1 = 0.13 [kg/m3]	speed of sound, m1 = 0.01 [m/s]	speed of sound, m1 = 0.07 [m/s]	speed of sound, m1 = 0.13 [m/s]	viscosity, m1 = 0.01 [mPa·s]	viscosity, m1 = 0.07 [mPa·s]	viscosity, m1 = 0.13 [mPa·s]
293.15 K	998.57	1000.83	1003.13	1483.3	1490.2	1496.3	1.01	1.015	1.019
298.15 K	997.402	999.633	1001.9	1497.3	1503.9	1509.7	0.8925	0.899	0.9052
303.15 K	995.993	998.2	1000.45	1509.7	1515.8	1521.3	0.8013	0.8074	0.8126
308.15 K	994.369	996.524	998.785	1520.3	1526	1531.3	0.7245	0.7285	0.7333
313.15 K	992.542	994.71	996.926	1529.4	1534.8	1539.8	0.6566	0.6606	0.6662

Reference: the NIST ThermoML archive (doi:10.1021/acs.jced.5b00549)
